Assay results as given in article PMC7836687 (International Journal of Biological Macromolecules, 2020).
pIC50: −log10 of the molar value.

Key:
[1] = test system: SARS-CoV-2; assay type: cell-based, SARS-CoV-2 (βCoV/KOR/KCDC03/2020); details: Severe acute respiratory syndrome coronavirus 2, Vero; for pIC50: read-out: IC50 against SARS-CoV-2 infection
[2] = cited from earlier work
[3] = test system: Vero cells; details: at concentration 12.50 μM

| Compound | pIC50 [1] | also measured |
| --- | --- | --- |
| C=C(C)[C@@H]1CCC(C)=C[C@H]1c1c(O)cc(CCCCC)cc1O [CBD, Cannabidiol] | 5.10 | inhibition at 12.5 µM ([1]; read-out: inhibition of SARS-CoV-2 virus): 99.2%; safe dose ([2]; humans, concluded from literature dosing): up to 60 mg per day; safety of a single oral dose ([2]; single oral dose 100 mg, healthy volunteers): safe and tolerable; Vero cell survival ratio [3]: 97.46% |
| C=C(C)[C@@H]1CCC(C)=C[C@H]1c1c(O)cc(CCCCC)c(C(=O)O)c1O [CBDA, Cannabidiolic acid] | 4.42 |  |
| CCCCCc1cc(O)c2c(c1)OC(C)(C)c1ccc(C)cc1-2 [CBN, Cannabinol] | 4.96 |  |
| CCN(CC)CCCC(C)Nc1ccnc2cc(Cl)ccc12 (centres unmarked) [chloroquine, reference compound] | 5.01 |  |
| Cc1cccc(C)c1OCC(=O)N[C@@H](Cc1ccccc1)[C@@H](O)C[C@H](Cc1ccccc1)NC(=O)[C@H](C(C)C)N1CCCNC1=O [lopinavir, reference compound] | 4.88 |  |
| CCC(CC)COC(=O)[C@H](C)N[P@](=O)(OC[C@H]1O[C@@](C#N)(c2ccc3c(N)ncnn23)[C@H](O)[C@@H]1O)Oc1ccccc1 [remdesivir, reference compound] | 5.09 |  |
| CCCCCc1cc(O)c2c(c1)OC(C)(C)[C@@H]1CCC(C)=C[C@@H]21 [Δ^9-THC, Δ^9-tetrahydrocannabinol] | 4.99 |  |
